US9296704B2, “Substituted pyrimidines as protein kinase inhibitors” (CELGENE AVILOMICS RESEARCH, INC., priority 2007, dated 2016)

How the values were obtained:
BTK = BTK (Homo sapiens, UniProt Q06187); test: Omnia assay for potency against BTK; assay type: biochemical; details: read-out: BTK Inhibition
Summary of the method: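 BTK (5 nM) was pre-incubated 30 min at 27° C with serially diluted compounds in Tris pH 7.5/MgCl2 buffer, then started with […] and Y5-Sox peptide 10 mM (ATP KMapp ~36 mM). Fluorescence (ex360/em485) was read continuously over 60 min. IC50 came from initial velocities using a variable-slope fit.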

[1] = system: BTK signaling in Ramos cells; test: BTK Ramos cellular assay (PLCγ2 phosphorylation); assay type: cell-based; details: Homo sapiens; Ramos cells, PLCγ2 phosphorylation; read-out: BTK Inhibition
Description: Compounds 1-13 and (I-52) were assayed in Ramos human Burkitt lymphoma cells. Ramos cells were grown in suspension in T225 flasks, spun down, resuspended in 50 mls serum-free media and incubated for 1 hour. Compound was added to Ramos cells in serum free media to a final concentration of 1, 0.1, 0.01, or 0.001 μM. Ramos cells were incubated with compound for 1 hour, washed again and resuspended in 100 ul serum-free media. Cells were then stimulated with 1 μg of goat F(ab′)2 Anti-Human IgM and incubated on ice for 10 minutes to activate B cell receptor signaling pathways. After 10 minutes, the cells were washed once with PBS and then lysed on ice with Invitrogen Cell Extraction buffer. 16 μg total protein from lysates was loaded on gels and blots were probed for phosphorylation of the BTK substrate PLCγ2. […] Additional dose response inhibition of BTK signaling with I-13 is depicted in FIG. 9.

ITK = target: T1, ITK (Homo sapiens, UniProt Q08881); test: Omnia assay for potency against ITK; assay type: biochemical; details: read-out: ITK inhibition
T1 sequence (Q08881 1-620): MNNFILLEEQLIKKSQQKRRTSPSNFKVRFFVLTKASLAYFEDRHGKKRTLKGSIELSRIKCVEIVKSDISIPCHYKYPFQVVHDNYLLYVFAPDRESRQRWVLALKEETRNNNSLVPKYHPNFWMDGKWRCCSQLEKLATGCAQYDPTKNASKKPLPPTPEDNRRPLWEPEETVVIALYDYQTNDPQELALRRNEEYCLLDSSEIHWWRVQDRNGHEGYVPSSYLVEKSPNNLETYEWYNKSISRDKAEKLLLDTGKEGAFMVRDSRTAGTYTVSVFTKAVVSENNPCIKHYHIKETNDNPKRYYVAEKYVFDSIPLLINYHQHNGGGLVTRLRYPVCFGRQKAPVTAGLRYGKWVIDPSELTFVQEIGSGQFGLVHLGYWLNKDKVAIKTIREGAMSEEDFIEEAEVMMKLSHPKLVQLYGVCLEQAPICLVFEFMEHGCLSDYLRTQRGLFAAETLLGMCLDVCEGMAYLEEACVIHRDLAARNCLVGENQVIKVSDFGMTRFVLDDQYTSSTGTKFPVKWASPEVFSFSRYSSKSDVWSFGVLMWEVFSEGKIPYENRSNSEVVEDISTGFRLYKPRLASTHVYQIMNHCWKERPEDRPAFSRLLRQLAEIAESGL
Text: The protocol below describes continuous-read kinase assays to measure inherent potency of compounds against active forms of EGFR (WT) and EGFR (T790M/L858R) enzymes. The mechanics of the assay platform are best described by the vendor (Invitrogen, Carlsbad, Calif.) on their website at the following URL: http://www.invitrogen.com/content.cfm?pageid=11338 or http://www.invitrogen.com/site/us/en/home/Products-and-Services/Applications/Drug-Discovery/Target-and-Lead-Identification-and-Validation/KinaseBiology/KB-Misc/Biochemical-Assays/Omnia-Kinase-Assays.html.
Briefly, 10× stocks of EGFR-WT (PV3872) from Invitrogen and EGFR-T790M/L858R (40350) from BPS Bioscience, San Diego, Calif., 1.13×ATP (AS001A) and appropriate Tyr-Sox conjugated peptide substrates (KCZI001) were prepared in 1× kinase reaction buffer consisting of 20 mM Tris, pH 7.5, 5 mM MgCl2, 1 mM EGTA, 5 mM β-glycerophosphate, 5% glycerol (10× stock, KB002A) and 0.2 mM DTT (DS001A). 5 μL of each enzyme were pre-incubated in a Corning (#3574) 384-well, white, non-binding surface microtiter plate (Corning, NY) for 30 min. at 27° C. with a 0.5 μL volume of 50% DMSO and serially diluted compounds prepared in 50% DMSO. Kinase reactions were started with the addition of 45 μL of the ATP/Tyr-Sox peptide substrate mix and monitored every 30-90 seconds for 60 minutes at λex360/λem485 in a Synergy^4 plate reader from BioTek (Winooski, Vt.). At the conclusion of each assay, progress curves from each well were examined for linear reaction kinetics and fit statistics (R^2, 95% confidence interval, absolute sum of squares). Initial velocity (0 minutes to ˜30 minutes) from each reaction was determined from the slope of a plot of relative fluorescence units vs time (minutes) and then plotted against inhibitor concentration to estimate IC50 from log [Inhibitor] vs Response, Variable Slope model in GraphPad Prism from GraphPad Software (San Diego, Calif.).
This example describes continuous-read kinase assays to measure inherent potency of compound against active forms of ITK enzymes as described in Example 10 above except that the modified ITK-optimized reagent conditions are: • [ITK]=10 nM, [ATP]=25 μM, [Y6-Sox]=10 μM (ATP KMapp=33 μM).

EGFR (WT) = target: T2, EGFR (WT) (Homo sapiens, UniProt P00533); test: Omnia continuous-read kinase assay, EGFR (WT); assay type: biochemical; details: read-out: EGFR inhibtion
T2 construct: purchased Invitrogen PV3872
T2 sequence (P00533 25-1210): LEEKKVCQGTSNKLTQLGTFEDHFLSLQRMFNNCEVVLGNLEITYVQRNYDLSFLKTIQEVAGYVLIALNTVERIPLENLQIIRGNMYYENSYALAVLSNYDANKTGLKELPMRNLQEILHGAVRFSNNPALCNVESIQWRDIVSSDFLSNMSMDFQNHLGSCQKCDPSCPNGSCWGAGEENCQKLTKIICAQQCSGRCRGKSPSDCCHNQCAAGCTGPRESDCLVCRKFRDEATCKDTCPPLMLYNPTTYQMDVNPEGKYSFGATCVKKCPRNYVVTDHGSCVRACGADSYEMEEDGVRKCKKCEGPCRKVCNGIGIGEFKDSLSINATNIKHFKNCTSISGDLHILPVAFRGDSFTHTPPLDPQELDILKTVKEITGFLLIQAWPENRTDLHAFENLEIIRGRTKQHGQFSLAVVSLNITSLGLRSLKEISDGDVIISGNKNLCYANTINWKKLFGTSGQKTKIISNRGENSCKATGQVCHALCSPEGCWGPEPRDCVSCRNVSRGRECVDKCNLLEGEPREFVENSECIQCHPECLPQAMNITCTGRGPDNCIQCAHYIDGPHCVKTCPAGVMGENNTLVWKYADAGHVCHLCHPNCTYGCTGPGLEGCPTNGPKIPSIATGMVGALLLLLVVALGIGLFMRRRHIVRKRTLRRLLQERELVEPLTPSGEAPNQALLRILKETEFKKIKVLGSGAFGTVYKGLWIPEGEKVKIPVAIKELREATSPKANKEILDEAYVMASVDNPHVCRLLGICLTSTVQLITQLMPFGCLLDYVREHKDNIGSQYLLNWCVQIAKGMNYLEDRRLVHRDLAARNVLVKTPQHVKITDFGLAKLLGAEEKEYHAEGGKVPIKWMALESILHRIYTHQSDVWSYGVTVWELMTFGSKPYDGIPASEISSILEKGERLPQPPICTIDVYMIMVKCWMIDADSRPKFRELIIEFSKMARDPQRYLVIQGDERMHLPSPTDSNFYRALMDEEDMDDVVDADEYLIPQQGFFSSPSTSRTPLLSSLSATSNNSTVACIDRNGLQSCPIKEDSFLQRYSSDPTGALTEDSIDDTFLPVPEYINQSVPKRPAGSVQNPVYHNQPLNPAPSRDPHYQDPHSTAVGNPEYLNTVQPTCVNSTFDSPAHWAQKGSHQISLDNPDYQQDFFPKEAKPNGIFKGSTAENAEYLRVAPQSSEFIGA
Summary of the method: (§1)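 Enzyme pre-incubated 30 min at 27 °C with compound, then ATP/Y12-Sox peptide added; fluorescence (ex360/em485) read continuously 60 min in 20 mM Tris pH 7.5, 5 mM MgCl2, 0.2 mM DTT. WT: 5 nM enzyme, […]; T790M/L858R: 3 nM enzyme, […]. IC50 from initial velocities, variable-slope fit.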

JAK3 = target: T3, JAK3 (Homo sapiens, UniProt P52333); test: Omnia assay for potency against JAK3; assay type: biochemical; details: read-out: JAK3 Inhibition
T3 sequence (P52333 1-1124): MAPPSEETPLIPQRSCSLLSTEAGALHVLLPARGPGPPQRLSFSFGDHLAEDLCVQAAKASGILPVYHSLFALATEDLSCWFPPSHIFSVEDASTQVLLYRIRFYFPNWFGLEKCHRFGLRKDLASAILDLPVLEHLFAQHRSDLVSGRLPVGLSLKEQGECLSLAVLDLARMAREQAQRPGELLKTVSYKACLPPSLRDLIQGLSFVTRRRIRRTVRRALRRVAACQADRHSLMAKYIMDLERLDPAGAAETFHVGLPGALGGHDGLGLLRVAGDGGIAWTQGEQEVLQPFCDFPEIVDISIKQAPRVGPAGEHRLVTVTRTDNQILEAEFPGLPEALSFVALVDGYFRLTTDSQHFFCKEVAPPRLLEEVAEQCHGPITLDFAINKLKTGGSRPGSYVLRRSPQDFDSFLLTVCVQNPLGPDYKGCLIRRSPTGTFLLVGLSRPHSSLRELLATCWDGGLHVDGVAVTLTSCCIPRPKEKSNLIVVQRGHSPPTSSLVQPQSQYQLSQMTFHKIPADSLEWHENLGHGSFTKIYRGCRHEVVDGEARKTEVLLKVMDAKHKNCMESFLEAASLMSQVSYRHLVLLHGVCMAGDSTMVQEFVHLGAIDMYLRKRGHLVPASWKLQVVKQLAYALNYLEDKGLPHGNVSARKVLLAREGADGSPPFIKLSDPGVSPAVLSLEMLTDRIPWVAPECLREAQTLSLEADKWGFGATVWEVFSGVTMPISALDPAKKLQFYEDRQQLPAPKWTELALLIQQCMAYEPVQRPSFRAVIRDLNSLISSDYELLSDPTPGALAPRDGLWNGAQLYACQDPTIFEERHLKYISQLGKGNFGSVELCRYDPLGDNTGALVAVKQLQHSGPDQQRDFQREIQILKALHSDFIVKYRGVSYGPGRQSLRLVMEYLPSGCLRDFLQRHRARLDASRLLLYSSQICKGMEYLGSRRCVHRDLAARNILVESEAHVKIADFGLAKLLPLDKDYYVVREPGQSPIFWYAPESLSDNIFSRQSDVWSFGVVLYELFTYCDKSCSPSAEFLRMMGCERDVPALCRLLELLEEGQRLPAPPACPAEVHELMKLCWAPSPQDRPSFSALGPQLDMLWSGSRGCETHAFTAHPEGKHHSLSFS
Summary of the method: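 Continuous-read Omnia kinase assay with 5 nM JAK3, 5 μM ATP (near apparent Km) and 5 μM Y12-Sox peptide in Tris pH 7.5/MgCl2 buffer; enzyme pre-incubated with compound 30 min at 27 °C. Fluorescence (ex360/em485) read over 60 min; initial velocities fitted against inhibitor concentration to give IC50.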

ErbB4 = ErbB4 (Homo sapiens, UniProt Q15303); test: Z'-LYTE biochemical assay, ErbB4 kinase inhibition
ErbB4, sequence (Q15303 26-1308): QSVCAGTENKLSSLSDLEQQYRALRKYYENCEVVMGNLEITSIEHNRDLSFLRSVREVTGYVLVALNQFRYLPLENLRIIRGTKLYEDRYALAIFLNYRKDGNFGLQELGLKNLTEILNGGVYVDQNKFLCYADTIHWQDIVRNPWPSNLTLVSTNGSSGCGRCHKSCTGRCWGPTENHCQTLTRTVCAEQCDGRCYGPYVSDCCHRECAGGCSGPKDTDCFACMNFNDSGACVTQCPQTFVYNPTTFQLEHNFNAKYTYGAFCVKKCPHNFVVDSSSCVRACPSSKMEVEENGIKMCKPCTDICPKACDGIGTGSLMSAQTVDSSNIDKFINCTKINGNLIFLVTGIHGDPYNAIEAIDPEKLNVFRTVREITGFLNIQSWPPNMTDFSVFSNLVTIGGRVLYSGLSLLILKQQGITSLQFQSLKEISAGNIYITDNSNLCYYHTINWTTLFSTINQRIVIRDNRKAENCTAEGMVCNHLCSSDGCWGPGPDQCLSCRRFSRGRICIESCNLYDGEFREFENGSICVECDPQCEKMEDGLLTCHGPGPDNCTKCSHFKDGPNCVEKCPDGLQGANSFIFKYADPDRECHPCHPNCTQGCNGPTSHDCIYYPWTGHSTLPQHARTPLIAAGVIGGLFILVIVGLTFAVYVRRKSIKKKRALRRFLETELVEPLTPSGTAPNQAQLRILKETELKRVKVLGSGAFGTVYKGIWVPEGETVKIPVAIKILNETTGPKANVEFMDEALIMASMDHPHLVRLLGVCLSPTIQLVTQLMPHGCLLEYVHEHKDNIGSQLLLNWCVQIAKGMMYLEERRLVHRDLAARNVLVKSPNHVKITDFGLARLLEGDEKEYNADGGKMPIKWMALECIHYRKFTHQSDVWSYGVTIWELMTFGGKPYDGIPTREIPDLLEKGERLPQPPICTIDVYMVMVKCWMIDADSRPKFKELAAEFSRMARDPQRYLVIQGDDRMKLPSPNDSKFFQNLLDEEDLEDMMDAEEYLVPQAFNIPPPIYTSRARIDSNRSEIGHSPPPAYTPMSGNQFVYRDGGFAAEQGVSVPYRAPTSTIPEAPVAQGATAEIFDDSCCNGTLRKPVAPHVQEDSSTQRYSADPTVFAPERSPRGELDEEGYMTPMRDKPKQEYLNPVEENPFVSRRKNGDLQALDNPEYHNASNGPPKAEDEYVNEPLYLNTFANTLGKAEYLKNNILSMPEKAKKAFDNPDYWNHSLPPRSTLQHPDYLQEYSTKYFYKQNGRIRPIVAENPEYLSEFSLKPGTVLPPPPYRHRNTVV
Description: (§2) Compounds of the present invention were assayed as inhibitors of one or more of ErbB1, ErbB2, and/or ErbB4 in a manner substantially similar to the method described by Invitrogen Corp (Invitrogen Corporation, 1600 Faraday Avenue, Carlsbad, Calif., CA; http://www.invitrogen.com/downloads/Z-LYTE_Brochure—1205.pdf) using the Z′-LYTE™ biochemical assay procedure or similar biochemical assay. The Z′-LYTE™ biochemical assay employs a fluorescence-based, coupled-enzyme format and is based on the differential sensitivity of phosphorylated and non-phosphorylated peptides to proteolytic cleavage.

EGFR (T790M/L858R) = target: T4, EGFR (T790M/L858R) (Homo sapiens, UniProt P00533, L858R/T790M); test: Omnia continuous-read kinase assay, EGFR (T790M/L858R); assay type: biochemical; details: read-out: EGFR (T790M/L858R) inhibiton
T4 construct: purchased BPS Bioscience 40350
T4 sequence (P00533 25-1210 T790M/L858R): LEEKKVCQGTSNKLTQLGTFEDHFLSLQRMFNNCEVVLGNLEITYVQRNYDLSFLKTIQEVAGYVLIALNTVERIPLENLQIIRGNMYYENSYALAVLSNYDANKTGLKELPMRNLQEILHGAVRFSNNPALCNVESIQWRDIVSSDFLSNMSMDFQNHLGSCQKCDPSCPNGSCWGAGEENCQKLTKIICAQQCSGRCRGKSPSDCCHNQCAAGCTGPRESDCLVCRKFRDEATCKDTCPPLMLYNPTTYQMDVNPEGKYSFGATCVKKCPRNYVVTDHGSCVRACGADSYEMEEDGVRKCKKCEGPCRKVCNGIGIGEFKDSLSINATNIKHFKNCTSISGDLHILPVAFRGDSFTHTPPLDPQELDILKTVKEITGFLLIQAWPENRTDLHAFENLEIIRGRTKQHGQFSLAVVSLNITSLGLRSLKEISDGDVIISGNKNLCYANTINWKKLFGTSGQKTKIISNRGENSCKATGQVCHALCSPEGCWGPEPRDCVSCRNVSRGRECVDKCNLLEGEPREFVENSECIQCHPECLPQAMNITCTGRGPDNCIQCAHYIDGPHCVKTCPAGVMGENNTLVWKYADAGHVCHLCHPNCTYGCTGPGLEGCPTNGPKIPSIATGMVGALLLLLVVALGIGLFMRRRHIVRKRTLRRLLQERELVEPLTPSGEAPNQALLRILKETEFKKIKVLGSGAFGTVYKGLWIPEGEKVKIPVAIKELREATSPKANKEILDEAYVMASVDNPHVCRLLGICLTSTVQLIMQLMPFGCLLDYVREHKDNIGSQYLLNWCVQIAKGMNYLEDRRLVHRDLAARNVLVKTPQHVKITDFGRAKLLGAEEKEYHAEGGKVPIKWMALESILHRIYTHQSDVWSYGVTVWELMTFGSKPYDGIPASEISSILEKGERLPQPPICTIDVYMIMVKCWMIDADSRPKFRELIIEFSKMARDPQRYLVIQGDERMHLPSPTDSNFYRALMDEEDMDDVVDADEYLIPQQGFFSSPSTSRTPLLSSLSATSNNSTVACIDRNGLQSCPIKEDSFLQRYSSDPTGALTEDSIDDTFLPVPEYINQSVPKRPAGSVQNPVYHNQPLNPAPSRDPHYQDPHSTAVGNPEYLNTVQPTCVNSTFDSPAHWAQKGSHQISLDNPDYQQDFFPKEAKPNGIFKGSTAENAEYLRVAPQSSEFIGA
Summary of the method: as §1

ErbB1 = ErbB1 (Homo sapiens, UniProt P00533); test: Z'-LYTE biochemical assay, ErbB1 kinase inhibition; details: for inhibition at 0.01 µM: @ 10 nM
Description: as §2

ErbB2 = ErbB2 (Homo sapiens, UniProt P04626); test: Z'-LYTE biochemical assay, ErbB2 kinase inhibition
ErbB2, sequence (P04626 23-1255): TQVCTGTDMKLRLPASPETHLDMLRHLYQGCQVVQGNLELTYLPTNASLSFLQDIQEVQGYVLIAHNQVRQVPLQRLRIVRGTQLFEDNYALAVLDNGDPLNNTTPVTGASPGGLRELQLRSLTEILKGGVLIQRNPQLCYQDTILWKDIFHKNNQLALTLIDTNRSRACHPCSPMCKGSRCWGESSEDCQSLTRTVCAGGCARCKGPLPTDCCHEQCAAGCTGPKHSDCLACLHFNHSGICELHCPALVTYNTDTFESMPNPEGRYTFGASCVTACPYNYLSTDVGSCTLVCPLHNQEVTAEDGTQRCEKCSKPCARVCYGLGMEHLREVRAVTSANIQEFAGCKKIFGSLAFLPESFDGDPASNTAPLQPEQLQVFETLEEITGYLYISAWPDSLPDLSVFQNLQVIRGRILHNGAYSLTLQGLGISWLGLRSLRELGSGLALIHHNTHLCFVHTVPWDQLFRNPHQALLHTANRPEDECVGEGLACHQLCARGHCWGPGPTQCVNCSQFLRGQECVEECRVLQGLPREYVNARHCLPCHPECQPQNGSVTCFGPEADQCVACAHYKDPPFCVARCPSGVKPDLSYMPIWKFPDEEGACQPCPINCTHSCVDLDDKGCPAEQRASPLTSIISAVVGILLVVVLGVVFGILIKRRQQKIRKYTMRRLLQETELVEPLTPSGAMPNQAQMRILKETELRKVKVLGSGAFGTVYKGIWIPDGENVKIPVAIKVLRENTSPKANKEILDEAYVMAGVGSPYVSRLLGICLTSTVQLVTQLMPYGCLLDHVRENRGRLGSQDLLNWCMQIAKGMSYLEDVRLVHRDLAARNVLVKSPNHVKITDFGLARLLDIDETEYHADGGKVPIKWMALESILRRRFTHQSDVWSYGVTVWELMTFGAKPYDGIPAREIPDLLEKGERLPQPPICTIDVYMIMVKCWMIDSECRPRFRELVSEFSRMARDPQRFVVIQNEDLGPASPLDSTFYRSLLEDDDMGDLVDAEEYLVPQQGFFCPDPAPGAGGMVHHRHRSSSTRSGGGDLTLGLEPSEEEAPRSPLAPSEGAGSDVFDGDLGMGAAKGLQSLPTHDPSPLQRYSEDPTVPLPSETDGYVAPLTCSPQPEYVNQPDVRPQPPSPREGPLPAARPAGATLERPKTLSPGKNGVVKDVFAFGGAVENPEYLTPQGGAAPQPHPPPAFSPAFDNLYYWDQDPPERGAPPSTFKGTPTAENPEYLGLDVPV
Description: as §2

C=CC(=O)Nc1cccc(Nc2cc(Oc3ccc4c(c3)OCCO4)ncn2)n1 [I-95, N-(6-(6-(2,3-dihydrobenzo[b][1,4]dioxin-6-yloxy)pyrimidin-4-ylamino)pyridin-2-yl)acrylamide]
IC50 (BTK): ≤ 10 nM | IC50 [1]: ≤ 10 nM | IC50 (ITK): ≥ 10000 nM | IC50 (EGFR (WT)): ≤ 10 nM

C/C=C/C(=O)Nc1cccc(Nc2cc(Nc3cccc(Br)c3)ncn2)c1 [I-8, (E)-N-(3-[6-(3-bromophenylamino)-pyrimidin-4-ylamino]-phenyl)-2-butenamide]
IC50 (BTK): ≥ 10000 nM | IC50 (JAK3): 1000 to 10000 nM | inhibition at 1 µM (ErbB4): 57% | IC50 (EGFR (T790M/L858R)): 1000 to 10000 nM | IC50 (EGFR (WT)): ≤ 10 nM | inhibition at 0.01 µM (ErbB1): 83%

C=CC(=O)Nc1cccc(Nc2cc(Nc3ccc(OCc4ccccn4)c(Cl)c3)ncn2)c1 [I-16, N-(3-(6-(3-chloro-4-(pyridin-2-ylmethoxy)phenylamino)pyrimidin-4-ylamino)phenyl)-2-propenamide]
IC50 (BTK): 10 to 100 nM | IC50 (JAK3): 10 to 100 nM | inhibition at 0.01 µM (ErbB4; @ 10 nM): 26% | inhibition at 0.1 µM (ErbB4; @ 100 nM): 93% | inhibition at 0.01 µM (ErbB2; @ 10 nM): 24% | inhibition at 0.1 µM (ErbB2; @ 100 nM): 87% | IC50 (EGFR (T790M/L858R)): 10 to 100 nM | IC50 (EGFR (WT)): ≤ 10 nM | inhibition at 1 µM (ErbB1; @ 1 μM): 98%

C=CS(=O)(=O)Nc1cccc(Nc2cc(Nc3ccc(OCc4cccc(F)c4)c(Cl)c3)ncn2)c1 [I-7, N-{3-[6-(3-chloro-4-(3-fluorophenyl)methoxy-phenylamino)-pyrimidin-4-ylamino]phenyl}-ethenesulfonamide]
IC50 (BTK): 10 to 100 nM | IC50 (JAK3): 100 to 1000 nM | inhibition at 1 µM (ErbB4): 100% | inhibition at 1 µM (ErbB2; @ 1 μM): 89% | IC50 (EGFR (T790M/L858R)): 10 to 100 nM | IC50 (EGFR (WT)): ≤ 10 nM | inhibition at 0.01 µM (ErbB1): 53% | inhibition at 0.1 µM (ErbB1; @ 100 nM): 100%
